Reference: patent US11103684B2, “Systems, devices, and methods for treating a pulmonary disorder with an agent” (Holaira, Inc., priority 2013, dated 2021)
≈ marks a conversion by molar mass, not a printed value. Structures can show the parent of a compound that is named as a salt. Where two headings read alike, the source gives them in different places.

Columns and labels:
[1] = Solubility levels of various agents in water; details: for Extent (of solubility): US Pharmacopea scale, part of solvent per part of solute; for Part H20/part solute / Solubility in Water: water; for Solubility in Water: from mg/L and MW
Description: (§1) According to US Pharmacopea standards, the scale of solubility (part of solvent per part of solute) is as follows:

[2] = cited from earlier work
physchem = details: water
Description: as §1

Structure (SMILES): CCCN1CCCC[C@H]1C(=O)Nc1c(C)cccc1C [Ropivacaine HCL]
- Extent (of solubility) ([1]; HCL): slightly soluble (100 to 1000)
- Part H20/part solute ([1]; HCL): 342.5
- Solubility in Water ([1]; HCL): 163.5 mM
- Solubility in Water ([2]; HCL): 53.8 mg/mL

Structure (SMILES): CCCCN1CCCCC1C(=O)Nc1c(C)cccc1C (centres unmarked) [Bupivicaine]
- Extent (of solubility) [1]: very slightly soluble (1000 to 10000)
- Part H20/part solute [1]: 6720
- Solubility in Water [1]: 8.333 mM (≈ 2400 µg/mL)

Structure (SMILES): CCCN1CCCC[C@H]1C(=O)Nc1c(C)cccc1C [Ropivacaine]
- Extent (of solubility) [1]: insoluble (>10000)
- Part H20/part solute [1]: 266388.8889
- Solubility in Water [1]: 0.2102 mM (≈ 57.7 µg/mL)
- Solubility in Water [2]: 0.0576 mg/mL (≈ 210 µM)

Structure (SMILES): [N]=O [Nitric Oxide]
- solubility (physchem): 2.85 mM (≈ 85.4 µg/mL)

Structure (SMILES): CCN(CC)CCNC(=O)c1ccc(N)cc1 [Procainamide]
- solubility (physchem; Solubility in Water (mol/L)): 18.6 mM (≈ 4390 µg/mL)

Structure (SMILES): Cc1cccc(C)c1NC(=O)C(C)N (centres unmarked) [Tocainide]
- solubility (physchem; Solubility in Water (mol/L)): 55.7 mM (≈ 10700 µg/mL)
